# PMC10553830, “Functional and structural analyses reveal that a dual domain sialidase protects bacteria from complement killing through desialylation of complement factors” (PLOS Pathogens, 2023)
# Tests used:
# [1] = biological target: T1, PG0352 (Porphyromonas gingivalis, UniProt Q7MX62); assay: X-ray crystal structure, […] Å (soaked); type: binding; settings: 10 mM soak, 20 min; sialidase active site; sialidase inhibitor
# T1 construct: gene PG_0352; N-terminal His6, residues 31-526 (CBM 31-176 plus sialidase domain 177-523), signal peptide removed, codon-optimized, pQE80L, E. coli BL21-Star (DE3); monomer, ~52 kDa by SEC
# T1 sequence (Q7MX62 entry or part of it): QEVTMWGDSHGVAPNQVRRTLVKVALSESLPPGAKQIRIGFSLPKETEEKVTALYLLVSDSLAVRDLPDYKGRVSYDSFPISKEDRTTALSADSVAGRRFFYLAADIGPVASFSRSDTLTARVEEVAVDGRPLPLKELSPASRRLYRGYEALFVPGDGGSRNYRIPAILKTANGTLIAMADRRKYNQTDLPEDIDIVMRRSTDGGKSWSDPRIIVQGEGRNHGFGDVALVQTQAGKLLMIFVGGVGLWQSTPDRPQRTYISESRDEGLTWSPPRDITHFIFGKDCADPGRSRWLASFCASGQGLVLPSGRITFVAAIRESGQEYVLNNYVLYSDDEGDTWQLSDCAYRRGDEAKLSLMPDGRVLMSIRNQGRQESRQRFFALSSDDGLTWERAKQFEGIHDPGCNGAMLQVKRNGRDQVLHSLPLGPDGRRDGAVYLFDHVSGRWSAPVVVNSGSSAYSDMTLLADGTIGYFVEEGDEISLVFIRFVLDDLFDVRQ
# [2] = biological target: T1, PG0352; assay: X-ray crystal structure, […] Å (soaked); type: binding; settings: 27 mM soak, 60 min; sialidase active site; alpha anomer
# [3] = biological target: T1, PG0352; assay: X-ray crystal structure, […] Å (co-crystallized); type: binding; settings: 5 mM ligand; bound in CBM cleft, not the active site
# [4] = system: Cc1cc(=O)oc2cc(O[C@@]3(C(=O)O)C[C@H](O)[C@@H](NC(=O)CO)[C@H]([C@H](O)[C@H](O)CO)O3)ccc12; assay: purified protein; settings: 10 mM sodium citrate, pH 5.0, 37 °C, 1 min, 5 nM enzyme
# [5] = system: CC(=O)N[C@H]1[C@H]([C@H](O)[C@H](O)CO)O[C@@](Oc2ccc3c(C)cc(=O)oc3c2)(C(=O)O)C[C@@H]1O; assay: purified protein; settings: 10 mM sodium citrate, pH 5.0, 37 °C, 1 min, 5 nM enzyme
compound,measurement,setting,value
CC(=O)N[C@H]1[C@H]([C@H](O)[C@H](O)CO)OC(C(=O)O)=C[C@@H]1O [DANA],"X-ray crystal structure, 2.14 Å (soaked)",[1],DANA binds within the sialidase active site in a similar conformation
CC(=O)N[C@H]1[C@H]([C@H](O)[C@H](O)CO)OC(O)(C(=O)O)C[C@@H]1O (some centres unmarked) [Neu5Ac],"X-ray crystal structure, 1.93 Å (soaked)",[2],Clear electron density was visible for Neu5Ac bound in its alpha anomeric form
OCC1(O)OC[C@@H](O)[C@@H](O)[C@@H]1O (some centres unmarked) [fructose],"X-ray crystal structure, 2.29 Å (co-crystallized)",[3],we co-crystallized PG0352 with fructose and determined the structure of the complex
PG0352 (Porphyromonas gingivalis W83),Km,[4],81.65 ± 20.56 µM
same,Km,[5],39.31 ± 6.540 µM
